Laboratory results reported in PMC9948199 (ACS Omega, 2023).
Values belong to the compound of their own block, whether it stands above or below them.

Tests used:
[1] = Tolerability and body weight in mice; format: in vivo; conditions: oral, 300 mpk
[2] = Blood, tumor and tissue concentration after last dose in the tumor model; format: in vivo, Balb/c nude mice; conditions: for concentration at 2 h / concentration at 8 h: female, Balb/c nude (Nu/Nu), mouse, ip; for concentration at 2 h / concentration at 8 h / concentration of MRTX1133 in kidney: 10 mg/kg; for concentration of MRTX1133 in heart / concentration of MRTX1133 in intestine / concentration of MRTX1133 in liver / concentration of MRTX1133 in lung / concentration of MRTX1133 in spleen / concentration of MRTX1133 in stomach / concentration of MRTX1133 in tumor / concentration of MRTX1133 in kidney: from MRTX1133 IP 10 mpk
[3] = system: AsPC-1 (pancreatic cancer cell line bearing the KRAS^G12D mutation) xenograft; experiment: AsPC-1 xenograft tumor mouse model efficacy; format: in vivo, Balb/c nude mice; conditions: 16 days
[4] = Stability in mouse liver microsomes; format: in vitro ADME; conditions: pH 7.4
Pharmacokinetics in mice = format: in vivo; conditions: intravenous, 3 mpk
[5] = Caco-2 permeability assay; format: in vitro ADME; conditions: human, Table 1
[6] = following IP administration of MRTX1133 (10 mpk), time not given

Compound: C#Cc1c(F)ccc2cc(O)cc(-c3ncc4c(N5C[C@H]6CC[C@@H](C5)N6C(=O)OC(C)OC(=O)CCC)nc(OC[C@@]56CCCN5C[C@H](F)C6)nc4c3F)c12 (stereo partly drawn) [Compound 9, 1-(Butyryloxy)ethyl (1R,5S)-3-(7-(8-ethynyl-7-fluoro-3-hydroxynaphthalen-1-yl)-8-fluoro-2-(((2R,7aS)-2-fluorotetrahydro-1H-pyrrolizin-7a(5H)-yl)methoxy)pyrido[4,3-d]pyrimidin-4-yl)-3,8-diazabicyclo[3.2.1]octane-8-carboxylate]
- tolerability in mice ([1]; conventional vehicle): intolerable
- tolerability in mice ([1]; lipid-based formulation): well-tolerated
- blood concentration of the named Cpd ([2]; 8 h post last oral dose of prodrug 9 (high dose, 126 mpk bid) in the tumor model): BLQ
- tumor growth inhibition (TGI) ([3]; high dose 126 mpk (equimolar to 100 mpk MRTX1133) p.o. bid): 54%
- tumor growth inhibition (TGI) ([3]; low dose 37.8 mpk (equimolar to 30 mpk MRTX1133) p.o. bid): 20%

- CLint scaled at 1 μM [4]: 143 mL/min/kg
- half-life at 1 μM [4]: 38.5 min
- concentration at 2 h ([2]; brain): 131 ng/g
- concentration at 8 h ([2]; brain): 139 ng/g
- concentration at 2 h ([2]; whole blood): 654 ng/mL
- concentration at 8 h ([2]; whole blood): 330 ng/mL
- concentration of MRTX1133 in the liver, spleen, and lung [2, 6]: ~60 000 ng/g
- concentration of MRTX1133 in the stomach, intestine, and heart [2, 6]: ~20 000 ng/g
- concentration of MRTX1133 in heart ([2]; 2 h post last dose): 18 330 ng/g
- concentration of MRTX1133 in intestine ([2]; 2 h post last dose): 24 388 ng/g
- concentration of MRTX1133 in liver ([2]; 2 h post last dose): 63 525 ng/g
- concentration of MRTX1133 in lung ([2]; 2 h post last dose): 53 040 ng/g
- concentration of MRTX1133 in spleen ([2]; 2 h post last dose): 58400 ng/g
- concentration of MRTX1133 in stomach ([2]; 2 h post last dose): 26 325 ng/g
- concentration of MRTX1133 in tumor ([2]; 2 h post last dose): 11 870 ng/g
- concentration of MRTX1133 in kidney ([2]; 2 h post last dose): 285 150 ng/g
- concentration of MRTX1133 in heart ([2]; 8 h post last dose): 15 795 ng/g
- concentration of MRTX1133 in intestine ([2]; 8 h post last dose): 18 213 ng/g
- concentration of MRTX1133 in liver ([2]; 8 h post last dose): 62 950 ng/g
- concentration of MRTX1133 in lung ([2]; 8 h post last dose): 57 300 ng/g
- concentration of MRTX1133 in spleen ([2]; 8 h post last dose): 54000 ng/g
- concentration of MRTX1133 in stomach ([2]; 8 h post last dose): 27 775 ng/g
- concentration of MRTX1133 in tumor ([2]; 8 h post last dose): 14 300 ng/g
- concentration of MRTX1133 in kidney ([2]; 8 h post last dose): 333 900 ng/g
- AUC0–24 h of MRTX1133 (Pharmacokinetics in mice): 2253 ng·h/mL
- Papp A→B ([5]; Caco-2, Caco-2 permeability Papp A – B): < 0.48 ×10⁻⁶ cm/s
- Papp B→A ([5]; Caco-2, Caco-2 permeability Papp B – A): 8.05 ×10⁻⁶ cm/s
- efflux ratio ([5]; Caco-2, Caco-2 permeability efflux ratio): > 16.8
Compound: C#Cc1c(F)ccc2cc(O)cc(-c3ncc4c(N5CC6CCC(C5)N6)nc(OC[C@@]56CCCN5C[C@H](F)C6)nc4c3F)c12 [MRTX1133]
- antitumor effect ([3]; 100 mpk p.o. bid): no apparent antitumor effect
